Common to all, as to assay: Growth inhibitory activity of compounds on BaF3 cell lines stably transfected with kinase (MTS, 48 h)
Common to all, as to format: cell-based

The target of test [1] is T1, various mutants of kinase EGFR (BaF3 cell lines stably transfected with kinase) (Homo sapiens, UniProt P00533, L858R).
T1 construct: expressed in transfected cells; host or cells: BaF3
Particulars: BaF3 cell line stably transfected with EGFR L858R, read-out: L858R growth inhibitory activity IC50. In outline:
(§1)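 BaF3 cells stably transfected with EGFR mutants were exposed for 48 h at 37°C to 8 compound concentrations (top 10 µM, 1/3 dilutions, 0.1% DMSO). Growth was read by MTS at 490 nm after 1-4 h, in duplicate; IC50 was derived from inhibition rates versus DMSO control.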

Test [2] addresses T2, various mutants of kinase EGFR (BaF3 cell lines stably transfected with kinase) (Homo sapiens, UniProt P00533, T790M/C797S, form not given).
T2 construct: other: BaF3 cells stably transfected with EGFR Δ19Del/T790M/C797S; MTS, 48; other: BaF3 cell line stably transfected with EGFR Δ19Del/T790M/C7
The settings on record: BaF3 cell line stably transfected with EGFR Δ19Del/T790M/C797S, read-out: Δ19Del/T790M/ C797S growth inhibitory activity IC50. The method, boiled down:
as §1

The target in test [3] is T3, various mutants of kinase EGFR (BaF3 cell lines stably transfected with kinase) (Homo sapiens, UniProt P00533, T790M, form not given).
T3 construct: other: BaF3 cells stably transfected with EGFR Δ19Del/T790M; MTS, 48 h; other: BaF3 cell line stably transfected with EGFR Δ19Del/T790M; MTS, 48
Particulars: BaF3 cell line stably transfected with EGFR Δ19Del/T790M, read-out: Δ19Del/ T790M growth inhibitory activity IC50. The method, boiled down:
as §1

The target in test [4] is T4, various mutants of kinase EGFR (BaF3 cell lines stably transfected with kinase) (Homo sapiens, UniProt P00533, C797S/L858R/T790M).
T4 construct: expressed in transfected cells; host or cells: BaF3
Particulars: BaF3 cell line stably transfected with EGFR L858R/T790M/C797S, read-out: L858R/T790M/ C797S growth inhibitory activity IC50. The method, boiled down: as §1

Test [5] deals with T5, various mutants of kinase EGFR (BaF3 cell lines stably transfected with kinase) (Homo sapiens, UniProt P00533, L858R/T790M).
T5 construct: expressed in transfected cells; host or cells: BaF3
Particulars: BaF3 cell line stably transfected with EGFR L858R/T790M, read-out: L858R/ T790M growth inhibitory activity IC50. In outline:
as §1

For test [6], the target named is T6, various mutants of kinase EGFR (BaF3 cell lines stably transfected with kinase) (Homo sapiens, UniProt P00533).
T6 construct: other: BaF3 cells stably transfected with EGFR Δ19Del; MTS, 48 h; other: BaF3 cell line stably transfected with EGFR Δ19Del
The settings on record: BaF3 cell line stably transfected with EGFR Δ19Del, read-out: Δ19Del growth inhibitory activity IC50. In outline: as §1

Bounds are passed on as bounds.

T6 sequence (P00533 with tags, fused parts or gaps DEL746-750): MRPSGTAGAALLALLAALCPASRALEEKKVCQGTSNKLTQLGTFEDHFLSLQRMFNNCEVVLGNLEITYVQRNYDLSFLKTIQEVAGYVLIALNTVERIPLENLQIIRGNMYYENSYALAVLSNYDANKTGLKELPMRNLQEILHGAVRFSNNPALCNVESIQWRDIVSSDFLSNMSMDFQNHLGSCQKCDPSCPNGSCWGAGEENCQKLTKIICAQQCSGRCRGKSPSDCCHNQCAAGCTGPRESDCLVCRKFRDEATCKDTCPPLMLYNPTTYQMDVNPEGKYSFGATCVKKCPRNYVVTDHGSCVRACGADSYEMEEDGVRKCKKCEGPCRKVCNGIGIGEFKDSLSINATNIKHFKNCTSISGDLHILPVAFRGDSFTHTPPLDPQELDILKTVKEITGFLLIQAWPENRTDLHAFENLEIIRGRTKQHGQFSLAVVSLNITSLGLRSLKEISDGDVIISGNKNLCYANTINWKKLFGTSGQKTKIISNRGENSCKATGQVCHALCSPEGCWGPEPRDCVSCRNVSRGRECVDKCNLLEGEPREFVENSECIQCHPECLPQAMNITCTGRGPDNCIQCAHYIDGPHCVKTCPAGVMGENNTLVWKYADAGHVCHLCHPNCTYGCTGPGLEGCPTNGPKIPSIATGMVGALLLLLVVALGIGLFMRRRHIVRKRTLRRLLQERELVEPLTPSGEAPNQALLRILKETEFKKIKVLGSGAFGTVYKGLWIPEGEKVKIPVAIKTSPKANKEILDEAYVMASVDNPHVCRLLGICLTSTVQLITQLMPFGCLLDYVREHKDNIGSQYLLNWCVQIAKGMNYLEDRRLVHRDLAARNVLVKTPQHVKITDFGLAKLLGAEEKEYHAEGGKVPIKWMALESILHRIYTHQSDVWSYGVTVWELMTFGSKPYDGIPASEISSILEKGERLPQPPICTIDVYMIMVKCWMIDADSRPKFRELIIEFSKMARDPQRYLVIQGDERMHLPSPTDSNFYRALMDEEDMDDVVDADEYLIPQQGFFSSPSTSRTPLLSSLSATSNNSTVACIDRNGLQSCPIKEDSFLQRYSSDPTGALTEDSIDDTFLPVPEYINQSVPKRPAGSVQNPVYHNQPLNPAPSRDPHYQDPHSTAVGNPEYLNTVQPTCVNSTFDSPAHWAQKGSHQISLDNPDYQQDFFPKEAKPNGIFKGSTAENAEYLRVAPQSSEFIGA
T4 sequence (P00533 25-1210 T790M/C797S/L858R): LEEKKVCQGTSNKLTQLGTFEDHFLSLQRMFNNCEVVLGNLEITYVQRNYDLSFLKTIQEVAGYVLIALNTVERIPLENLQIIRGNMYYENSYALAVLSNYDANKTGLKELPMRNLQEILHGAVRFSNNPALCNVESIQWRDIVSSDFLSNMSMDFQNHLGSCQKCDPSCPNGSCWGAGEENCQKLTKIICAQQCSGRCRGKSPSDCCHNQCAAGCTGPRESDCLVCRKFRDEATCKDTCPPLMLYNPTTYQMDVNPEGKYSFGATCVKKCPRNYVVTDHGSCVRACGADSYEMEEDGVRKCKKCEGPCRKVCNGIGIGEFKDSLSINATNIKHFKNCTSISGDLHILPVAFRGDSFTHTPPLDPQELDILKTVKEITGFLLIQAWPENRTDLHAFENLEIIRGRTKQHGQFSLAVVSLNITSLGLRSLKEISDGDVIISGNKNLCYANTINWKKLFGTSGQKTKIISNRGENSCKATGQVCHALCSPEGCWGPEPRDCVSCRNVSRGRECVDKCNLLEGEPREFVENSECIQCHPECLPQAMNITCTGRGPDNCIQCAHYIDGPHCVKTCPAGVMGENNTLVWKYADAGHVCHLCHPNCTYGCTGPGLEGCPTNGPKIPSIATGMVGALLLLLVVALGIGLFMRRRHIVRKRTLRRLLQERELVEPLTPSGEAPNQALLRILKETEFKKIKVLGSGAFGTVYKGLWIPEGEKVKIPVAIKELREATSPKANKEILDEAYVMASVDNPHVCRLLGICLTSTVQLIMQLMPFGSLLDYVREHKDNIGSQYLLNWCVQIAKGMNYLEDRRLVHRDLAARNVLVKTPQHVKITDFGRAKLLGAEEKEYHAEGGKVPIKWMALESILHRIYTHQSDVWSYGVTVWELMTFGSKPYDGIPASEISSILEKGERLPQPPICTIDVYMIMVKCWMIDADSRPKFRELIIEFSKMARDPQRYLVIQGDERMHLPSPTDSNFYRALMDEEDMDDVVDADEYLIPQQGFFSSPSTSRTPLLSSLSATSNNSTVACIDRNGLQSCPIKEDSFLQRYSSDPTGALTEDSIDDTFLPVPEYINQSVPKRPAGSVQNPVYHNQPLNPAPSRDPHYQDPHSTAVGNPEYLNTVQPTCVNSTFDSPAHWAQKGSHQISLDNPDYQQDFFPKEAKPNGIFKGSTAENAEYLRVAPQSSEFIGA
T5 sequence (P00533 25-1210 T790M/L858R): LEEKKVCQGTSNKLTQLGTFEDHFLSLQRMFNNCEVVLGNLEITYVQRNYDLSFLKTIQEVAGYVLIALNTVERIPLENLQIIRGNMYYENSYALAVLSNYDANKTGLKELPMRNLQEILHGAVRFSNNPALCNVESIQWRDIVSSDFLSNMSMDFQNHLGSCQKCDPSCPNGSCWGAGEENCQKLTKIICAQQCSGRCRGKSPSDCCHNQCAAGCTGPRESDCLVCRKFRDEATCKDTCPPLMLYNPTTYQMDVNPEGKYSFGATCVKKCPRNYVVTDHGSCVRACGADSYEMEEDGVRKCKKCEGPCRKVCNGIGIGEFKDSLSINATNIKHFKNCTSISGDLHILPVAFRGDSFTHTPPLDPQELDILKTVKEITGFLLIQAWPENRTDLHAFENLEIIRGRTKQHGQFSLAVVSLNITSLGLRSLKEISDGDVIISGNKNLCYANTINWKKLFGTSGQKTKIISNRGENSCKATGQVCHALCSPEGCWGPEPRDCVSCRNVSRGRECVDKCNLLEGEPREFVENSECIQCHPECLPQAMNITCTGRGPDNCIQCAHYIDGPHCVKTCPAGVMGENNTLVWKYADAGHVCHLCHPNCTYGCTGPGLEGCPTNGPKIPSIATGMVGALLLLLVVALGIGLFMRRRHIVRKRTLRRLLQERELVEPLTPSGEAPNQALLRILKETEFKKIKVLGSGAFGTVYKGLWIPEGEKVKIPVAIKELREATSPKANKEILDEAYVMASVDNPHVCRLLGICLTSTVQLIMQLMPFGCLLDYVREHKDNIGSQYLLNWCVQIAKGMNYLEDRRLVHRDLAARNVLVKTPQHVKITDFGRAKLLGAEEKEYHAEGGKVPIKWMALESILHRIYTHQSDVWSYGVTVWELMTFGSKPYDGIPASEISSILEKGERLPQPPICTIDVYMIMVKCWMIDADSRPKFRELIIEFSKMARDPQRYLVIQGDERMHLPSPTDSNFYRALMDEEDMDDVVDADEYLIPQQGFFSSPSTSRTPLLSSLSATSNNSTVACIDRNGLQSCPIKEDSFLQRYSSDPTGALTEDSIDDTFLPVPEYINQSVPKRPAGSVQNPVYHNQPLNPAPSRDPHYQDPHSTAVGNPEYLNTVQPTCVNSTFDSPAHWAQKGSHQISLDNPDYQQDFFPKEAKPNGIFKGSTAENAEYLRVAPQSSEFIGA
T3 sequence (P00533 with tags, fused parts or gaps DEL746-750/T790M, form open): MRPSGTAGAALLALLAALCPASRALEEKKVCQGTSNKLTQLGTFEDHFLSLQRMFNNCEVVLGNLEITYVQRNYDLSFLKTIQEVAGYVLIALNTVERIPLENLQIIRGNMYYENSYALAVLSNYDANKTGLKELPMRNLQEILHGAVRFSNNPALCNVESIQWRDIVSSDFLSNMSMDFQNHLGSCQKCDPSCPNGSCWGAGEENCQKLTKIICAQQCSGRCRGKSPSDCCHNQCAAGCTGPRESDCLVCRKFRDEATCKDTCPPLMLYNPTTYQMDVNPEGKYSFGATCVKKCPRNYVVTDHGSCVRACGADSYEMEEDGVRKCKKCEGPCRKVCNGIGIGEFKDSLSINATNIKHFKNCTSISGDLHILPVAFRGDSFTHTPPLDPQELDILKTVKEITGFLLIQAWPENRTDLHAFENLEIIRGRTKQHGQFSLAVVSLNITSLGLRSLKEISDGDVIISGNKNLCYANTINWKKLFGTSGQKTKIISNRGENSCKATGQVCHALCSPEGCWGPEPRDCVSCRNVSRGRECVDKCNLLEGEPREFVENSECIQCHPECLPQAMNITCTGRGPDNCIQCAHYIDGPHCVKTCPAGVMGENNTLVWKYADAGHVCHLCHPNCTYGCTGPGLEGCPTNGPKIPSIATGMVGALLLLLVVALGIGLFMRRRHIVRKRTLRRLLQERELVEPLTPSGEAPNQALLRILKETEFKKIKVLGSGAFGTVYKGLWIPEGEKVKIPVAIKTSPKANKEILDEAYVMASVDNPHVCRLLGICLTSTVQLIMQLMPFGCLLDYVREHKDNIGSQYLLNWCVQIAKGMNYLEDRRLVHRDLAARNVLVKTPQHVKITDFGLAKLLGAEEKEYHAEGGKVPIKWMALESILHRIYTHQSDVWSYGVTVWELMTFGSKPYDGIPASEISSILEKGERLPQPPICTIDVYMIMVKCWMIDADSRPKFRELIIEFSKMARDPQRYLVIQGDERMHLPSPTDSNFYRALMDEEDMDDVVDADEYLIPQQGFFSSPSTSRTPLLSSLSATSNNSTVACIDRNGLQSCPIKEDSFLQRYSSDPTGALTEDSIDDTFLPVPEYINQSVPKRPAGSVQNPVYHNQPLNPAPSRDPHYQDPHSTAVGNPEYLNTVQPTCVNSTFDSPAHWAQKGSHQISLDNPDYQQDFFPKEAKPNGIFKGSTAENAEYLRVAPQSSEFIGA

As for `COc1ccc(N2CCC(O)CC2)cc1Nc1ncc(F)c(Nc2ccc3nccnc3c2N(C)S(C)(=O)=O)n1` [Compound I-367], the IC50 in test [1] lay within 500 to 2500 nM; in test [2], 50 to 500 nM; in test [3], 500 to 2500 nM; in test [4], 50 to 500 nM; in test [5], 500 to 2500 nM; in test [6] it was 500 to 2500 nM.
As for `COc1ccc(N2CCC(O)CC2)cc1Nc1ncc(Cl)c(Nc2ccc3nccnc3c2N(C)S(C)(=O)=O)n1` [Compound I-368], the IC50 in test [1] was 50 to 500 nM; in test [2], not above 50 nM; in test [3], 50 to 500 nM; in test [4] it was not above 50 nM; in test [5], not above 50 nM; in test [6] it was 50 to 500 nM.
`COc1ccc(N2CCC(O)CC2)cc1Nc1ncc(C(F)(F)F)c(Nc2ccc3nccnc3c2N(C)S(C)(=O)=O)n1` [Compound I-369]: the IC50 in test [1] is 50 to 500 nM; in test [2] it was not above 50 nM; in test [3], not above 50 nM; in test [4], not above 50 nM; in test [5], not above 50 nM; in test [6] it was 50 to 500 nM.
Consider `COc1ccc(N2CCC(O)CC2)cc1Nc1ncc(Cl)c(Nc2ccc3nccnc3c2N(C)S(=O)(=O)C(F)(F)F)n1` [Compound I-370], for which the IC50 in test [1] is 50 to 500 nM; in test [2] it was not above 50 nM; in test [3] it was 500 to 2500 nM; in test [4] it was not above 50 nM; in test [5], 50 to 500 nM; in test [6], 500 to 2500 nM.
As for `COc1ccc(N2CCC(O)CC2)cc1Nc1ncc(Br)c(Nc2ccc3nccnc3c2N(C)S(=O)(=O)C(F)(F)F)n1` [Compound I-371], the IC50 was 50 to 500 nM in test [1]; not above 50 nM in test [2]; 50 to 500 nM in test [3]; not above 50 nM in test [4]; 50 to 500 nM in test [5]; 500 to 2500 nM in test [6].
Regarding `CCS(=O)(=O)N(C)c1c(Nc2nc(Nc3cc(N4CCC(O)CC4)ccc3OC)ncc2Cl)ccc2nccnc12` [Compound I-372], the IC50 in test [1] was not above 50 nM; in test [2] it was not above 50 nM; in test [3], 50 to 500 nM; in test [4] it was not above 50 nM; in test [5], not above 50 nM; in test [6] it was 50 to 500 nM.
On to `COc1ccc(N2CCC(O)CC2)cc1Nc1ncc(F)c(Nc2ccc3nccnc3c2N(C)S(=O)(=O)C2CC2)n1` [Compound I-373], for which the IC50 is 50 to 500 nM in test [1]; 50 to 500 nM in test [2]; 500 to 2500 nM in test [3]; 500 to 2500 nM in test [4]; 500 to 2500 nM in test [5]; 500 to 2500 nM in test [6].
Regarding `COc1ccc(N2CCC(O)CC2)cc1Nc1ncc(Cl)c(Nc2ccc3nccnc3c2N(C)S(=O)(=O)C2CC2)n1` [Compound I-374], the IC50 was 50 to 500 nM in test [1]; not above 50 nM in test [2]; 50 to 500 nM in test [3]; not above 50 nM in test [4]; 50 to 500 nM in test [5]; 50 to 500 nM in test [6].
With `COc1ccc(N2CCC(O)CC2)cc1Nc1ncc(Br)c(Nc2ccc3nccnc3c2N(C)S(=O)(=O)C2CC2)n1` [Compound I-375], the IC50 in test [1], in test [2], in test [3], in test [4], in test [5] and in test [6] was not above 50 nM in each case.
Consider `COc1ccc(N2CCC(O)CC2)cc1Nc1ncc(Br)c(Nc2ccc3nccnc3c2N(C)S(=O)(=O)C(C)C)n1` [Compound I-376], for which the IC50 in test [1] is 50 to 500 nM; in test [2] it was not above 50 nM; in test [3], 50 to 500 nM; in test [4], not above 50 nM; in test [5], not above 50 nM; in test [6], 50 to 500 nM.
Turning to `CCN(c1c(Nc2nc(Nc3cc(N4CCC(O)CC4)ccc3OC)ncc2Cl)ccc2nccnc12)S(C)(=O)=O` [Compound I-377], the IC50 in test [1], in test [2], in test [3], in test [4], in test [5] and in test [6] was not above 50 nM in each case.
As to `CCN(c1c(Nc2nc(Nc3cc(N4CCC(O)CC4)ccc3OC)ncc2Br)ccc2nccnc12)S(C)(=O)=O` [Compound I-378], the IC50 in test [1] was 50 to 500 nM; in test [2] it was not above 50 nM; in test [3] it was not above 50 nM; in test [4], not above 50 nM; in test [5], not above 50 nM; in test [6], 50 to 500 nM.
For `COc1ccc(N2CCC(O)CC2)cc1Nc1ncc(Cl)c(Nc2ccc3nccnc3c2N(C2CC2)S(C)(=O)=O)n1` [Compound I-379], the IC50 in test [1], in test [2], in test [3], in test [4], in test [5] and in test [6] was not above 50 nM each time.
For the compound `COc1ccc(N2CCC(O)CC2)cc1Nc1ncc(Br)c(Nc2ccc3nccnc3c2N(C2CC2)S(C)(=O)=O)n1` [Compound I-380], the IC50 in test [1], in test [2], in test [3], in test [4], in test [5] and in test [6] was not above 50 nM each time.
For `CN(c1c(Nc2nc(Nc3cccc(N4CCC(N5CCCC5)CC4)c3)ncc2Br)ccc2nccnc12)S(C)(=O)=O` [Compound I-381], the IC50 in test [1] was 50 to 500 nM; in test [2], 50 to 500 nM; in test [3] it was not above 50 nM; in test [4] it was not above 50 nM; in test [5], not above 50 nM; in test [6] it was 50 to 500 nM.
For the compound `COc1ccc(N2CCC(N3CCCC3)CC2)cc1Nc1ncc(Br)c(Nc2ccc3nccnc3c2N(C)S(C)(=O)=O)n1` [Compound I-382], the IC50 in test [1] is 50 to 500 nM; in test [2], 50 to 500 nM; in test [3], 50 to 500 nM; in test [4], not above 50 nM; in test [5] it was not above 50 nM; in test [6], 50 to 500 nM.
In the case of `CCn1ccc(Nc2ncc(Br)c(Nc3ccc4nccnc4c3N(C)S(C)(=O)=O)n2)n1` [Compound I-383], the IC50 in test [1] was 50 to 500 nM; in test [2], 50 to 500 nM; in test [3] it was 50 to 500 nM; in test [4], not above 50 nM; in test [5], 50 to 500 nM; in test [6], 50 to 500 nM.
As for `CC(C)n1ccc(Nc2ncc(Br)c(Nc3ccc4nccnc4c3N(C)S(C)(=O)=O)n2)n1` [Compound I-384], the IC50 fell in the range of 500 to 2500 nM in test [1]; 50 to 500 nM in test [2]; 50 to 500 nM in test [3]; 50 to 500 nM in test [4]; 50 to 500 nM in test [5]; 500 to 2500 nM in test [6].
For the compound `Cc1cc(Nc2ncc(Br)c(Nc3ccc4nccnc4c3N(C)S(C)(=O)=O)n2)nn1C` [Compound I-385], the IC50 is 500 to 2500 nM in test [1]; 50 to 500 nM in test [2]; 500 to 2500 nM in test [3]; not above 50 nM in test [4]; 500 to 2500 nM in test [5]; 500 to 2500 nM in test [6].
As for `CCn1cc(Nc2ncc(Br)c(Nc3ccc4nccnc4c3N(C)S(C)(=O)=O)n2)cn1` [Compound I-386], the IC50 is 50 to 500 nM in test [1]; not above 50 nM in test [2]; 50 to 500 nM in test [3]; 50 to 500 nM in test [4]; 50 to 500 nM in test [5]; 50 to 500 nM in test [6].

The values are drawn from patent US20230310428A1, “EGFR INHIBITOR AND PREPARATION METHOD AND USE THEREOF” (HONGYUN BIOTECH CO., LTD., priority 2020, published 2023).
